What was measured:
[1] = tested on: hen's-egg chorioallantoic membrane (CAM); assay: hen's-egg chorioallantoic membrane (CAM) irritation model with 15% lactic acid as standard irritant; type: in vivo; details: CAM treated with 15% lactic acid; sample applied before the irritant (prophylactic use); oenothein-B tested at 1% (weight to volume) dilution
Experimental: In the hen's-egg chorioallantoic membrane (CAM) model, in which the CAM is treated with 15% lactic acid as a standard irritant, the development of manifestations of membrane irritation were tracked and scored according to published methods for assessing irritancy (Luepke and Kemper, 1986, Food and Chemical Toxicology 24:495; Spielmann et al. 1997, Food and Chemical Toxicology 35:39). A sample of the oenothein-B extract from Canadian Willowherb described in Example 1 was tested at a 1% (weight to volume) dilution for activity in the CAM model.

[2] = xanthine oxidase/acetaldehyde spectrophotometric superoxide radical scavenging method; type: biochemical
Experimental: The scavenging of free superoxide radicals is quantitated spectrometrically and expressed in terms of percentage of radicals scavenged. Assays were performed with 1% (w/v) and 0.1% (w/v) dilutions of the dried extract, which yielded up to 100% scavenging activity and up to 99% scavenging activity respectively.

Substance: oenothein-B
- decrease in irritation [1]: up to 70%
- scavenging activity (percentage of radicals scavenged) ([2]; 0.1% (w/v) dilution of the dried extract): up to 99%
- scavenging activity (percentage of radicals scavenged) ([2]; 1% (w/v) dilution of the dried extract): up to 100%

— US20030004131A1, “OENOTHEIN MEDICAMENTS” (priority 1999, published 2003)
